Tests used:
RSV-Luc5 = assay: microbe, parasite or virus in culture; format: cell-based; settings: human respiratory syncytial virus, NHBE, 72 h, read-out: RSV NHBE EC50 (nM)
in vitro [1] = format: cell-based; settings: human
Method: Example C: CC50 MT4 Cytotoxicity of the compounds was determined in uninfected cells using the cell viability reagent in a similar fashion as described before for other cell types ([…] et al., Antimicrob Agents Chemother. 2008,52(2):655-65). […] Cells were cultured for 4-5 days at 37° C. Following the incubation, the cells were allowed to equilibrate to 25° C., and cell viability was determined by adding Cell-Titer Glo viability reagent. The mixture was incubated for 10 min, and the luminescence signal was quantified using an Envision plate reader. Untreated cell and cells treated at 2 μM puromycin (Sigma, St. Louis, MO) serve as 100% and 0% cell viability control, respectively. The percent of cell viability was calculated for each tested compound concentration relative to the 0% and 100% controls and the CC50 value was determined by non-linear regression as a compound concentration reducing the cell viability by 50%.

SARS-CoV2-NLuc = assay: microbe, parasite or virus in culture; format: cell-based, SARS Coronavirus 2; settings: Severe acute respiratory syndrome coronavirus 2, 48 h, read-out: SARS-CoV2 EC50 (nM)
in vitro [2] = format: in vitro ADME; settings: human, s9, pH 7.4
Method: Example D: GI S9 Stability […] The S9 metabolic reactions were initiated by the addition of the substrates to the S9 reaction mixture to a final concentration of 2 μM. […] Aliquots ([…]) of the diluted supernatant were analyzed on a Thermo Q-Exactive mass spectrometer as described below. Example F: Liquid Chromatography/Mass Spectroscopy Methods for S9 and Plasma Stability Quantification of test compounds, Reference Compound A (S9 stability assay nucleoside metabolite), and controls was performed by analyte/internal standard peak area ratio (PAR) values measured on a Thermo Q-Exactive mass spectrometer coupled to a Dionex UltiMate 3000 HPLC with a Leap Technologies HTC PAL autosampler. […] Mobile phase A consisted of 0.1% (v/v) formic acid in water. Mobile phase B consisted of 0.1% (v/v) formic acid in acetonitrile. Elution of analytes was achieved by a series of linear gradients of acetonitrile in water containing 0.10% (v/v) formic acid. The mass spectrometer was calibrated on a weekly basis and mass tolerance of 5 ppm was used.

[3] = system: Caco-2 cells (clone C2BBe1); settings: human, Caco-2
in vitro [4] = settings: human, plasma

| SMILES | EC50 (RSV-Luc5) | CC50 (in vitro [1]) | EC50 (SARS-CoV2-NLuc) | half-life at 2 μM (in vitro [2]) | Caco2 A to B [3] | Caco2 B to A [3] | half-life at 2 μM (in vitro [4]) |
| --- | --- | --- | --- | --- | --- | --- | --- |
| CC1(C)CC(=O)O[C@H]2[C@@H](OC(=O)C1)[C@](C#N)(c1ccc3c(N)ncnn13)O[C@@H]2COC(=O)O[C@H]1C(C)(C)[C@H]2CC[C@@]1(C)C2 [Compound C45, ((7aR,8R,10R,10aR)-10-(4-aminopyrrolo[2,1-f][1,2,4]triazin-7-yl)-10-cyano-4,4-dimethyl-2,6-dioxooctahydro-2H-furo[3,4-b][1,4]dioxonin-8-yl)methyl ((1S,2R,4S)-1,3,3-trimethylbicyclo[2.2.1]heptan-2-yl) carbonate] | 4160 nM | 12.6 µM | 9170 nM | 37.3 min |  |  |  |
| CC(C)(C)COC(=O)OC[C@H]1O[C@@](C#N)(c2ccc3c(N)ncnn23)[C@@H]2OC(=O)CC(C)(C)CC(=O)O[C@@H]21 [Compound C46, ((7aR,8R,10R,10aR)-10-(4-aminopyrrolo[2,1-f][1,2,4]triazin-7-yl)-10-cyano-4,4-dimethyl-2,6-dioxooctahydro-2H-furo[3,4-b][1,4]dioxonin-8-yl)methyl neopentyl carbonate] | 11700 nM | > 50 µM | > 50000 nM | 4.71 min |  |  |  |
| N#C[C@@]1(c2ccc3c(N)ncnn23)O[C@H](CO)[C@H]2OC(=O)CCCC(=O)O[C@H]21 [Compound C10, (7aR,8R,10R,10aR)-8-(4-aminopyrrolo[2,1-f][1,2,4]triazin-7-yl)-10-(hydroxymethyl)-2,6-dioxooctahydro-2H-furo[3,4-b][1,4]dioxonine-8-carbonitrile] |  | > 50 µM |  | 0.768 min |  |  |  |
| CCC(CC)COC(=O)OC[C@H]1O[C@@](C#N)(c2ccc3c(N)ncnn23)[C@@H]2OC(=O)CC(C)(C)CC(=O)O[C@@H]21 [Compound C38, ((7aR,8R,10R,10aR)-10-(4-aminopyrrolo[2,1-f][1,2,4]triazin-7-yl)-10-cyano-4,4-dimethyl-2,6-dioxooctahydro-2H-furo[3,4-b][1,4]dioxonin-8-yl)methyl (2-ethylbutyl) carbonate] | > 50000 nM | 30.9 µM | 38300 nM | 7.17 min |  |  |  |
| CC(C)OC(=O)OC[C@H]1O[C@@](C#N)(c2ccc3c(N)ncnn23)C2OC(=O)CCC(=O)OC21 (stereo partly drawn) [Compound C1, ((7R,9R)-9-(4-aminopyrrolo[2,1-f][1,2,4]triazin-7-yl)-9-cyano-2,5-dioxooctahydrofuro[3,4-b][1,4]dioxocin-7-yl)methyl isopropyl carbonate] |  | > 50 µM |  | 0.716 min |  |  |  |
| N#C[C@@]1(c2ccc3c(N)ncnn23)O[C@H](COC(=O)OC2CNC2)[C@H]2OC(=O)CCCC(=O)O[C@H]21 [Compound C50, ((7aR,8R,10R,10aR)-10-(4-aminopyrrolo[2,1-f][1,2,4]triazin-7-yl)-10-cyano-2,6-dioxooctahydro-2H-furo[3,4-b][1,4]dioxonin-8-yl)methyl azetidin-3-yl carbonate 2,2,2-trifluoroacetate] | 14500 nM | > 50 µM | 3110 nM | 1.91 min |  |  |  |
| CCOC(=O)C(C)(C)OC(=O)OC[C@H]1O[C@@](C#N)(c2ccc3c(N)ncnn23)[C@@H]2OC(=O)CC(C)(C)CC(=O)O[C@@H]21 [Compound C43, ethyl 2-(((((7aR,8R,10R,10aR)-10-(4-aminopyrrolo[2,1-f][1,2,4]triazin-7-yl)-10-cyano-4,4-dimethyl-2,6-dioxooctahydro-2H-furo[3,4-b][1,4]dioxonin-8-yl)methoxy)carbonyl)oxy)-2-methylpropanoate] | > 50000 nM | > 50 µM | > 50000 nM | 19.7 min | 2.93 | 11.62 |  |
| CC1(C)CC(=O)O[C@H]2[C@@H](OC(=O)C1)[C@](C#N)(c1ccc3c(N)ncnn13)O[C@@H]2COC(=O)OCC1(C#N)CC1 [Compound C41, ((7aR,8R,10R,10aR)-10-(4-aminopyrrolo[2,1-f][1,2,4]triazin-7-yl)-10-cyano-4,4-dimethyl-2,6-dioxooctahydro-2H-furo[3,4-b][1,4]dioxonin-8-yl)methyl ((1-cyanocyclopropyl)methyl) carbonate] | > 50000 nM | > 50 µM | > 50000 nM | 4.17 min | 0.54 | 6.77 |  |
| CC1(C)CC(=O)O[C@H]2[C@@H](OC(=O)C1)[C@](C#N)(c1ccc3c(N)ncnn13)O[C@@H]2COC(=O)OC(C)(C)c1ccncc1 [Compound C34, ((7aR,8R,10R,10aR)-10-(4-aminopyrrolo[2,1-f][1,2,4]triazin-7-yl)-10-cyano-4,4-dimethyl-2,6-dioxooctahydro-2H-furo[3,4-b][1,4]dioxonin-8-yl)methyl (2-(pyridin-4-yl)propan-2-yl) carbonate] | > 50000 nM | > 50 µM | 8120 nM | 44.7 min |  |  |  |
| CC(C)OC(=O)OC[C@H]1O[C@@](C#N)(c2ccc3c(N)ncnn23)[C@@H]2OC(=O)CCCCCCC(=O)O[C@@H]21 [Compound C5, ((10aR,11R,13R,13aR)-13-(4-aminopyrrolo[2,1-f][1,2,4]triazin-7-yl)-13-cyano-2,9-dioxododecahydrofuro[3,4-b][1,4]dioxacyclododecin-11-yl)methyl isopropyl carbonate] |  | > 50 µM |  | 0.754 min |  |  |  |
| N#C[C@@]1(c2ccc3c(N)ncnn23)O[C@H](COC(=O)C2CCC2)[C@H]2OC(=O)CCCC(=O)O[C@H]21 [Compound C57, ((7aR,8R,10R,10aR)-10-(4-aminopyrrolo[2,1-f][1,2,4]triazin-7-yl)-10-cyano-2,6-dioxooctahydro-2H-furo[3,4-b][1,4]dioxonin-8-yl)methyl cyclobutanecarboxylate] | 3780 nM | > 50 µM | 3000 nM |  |  |  | 7.33 min |
| CC1(C)[C@H]2CC[C@@](C)(C2)[C@H]1OC(=O)OC[C@H]1O[C@@](C#N)(c2ccc3c(N)ncnn23)[C@@H]2OC(=O)CCCC(=O)O[C@@H]21 [Compound C28, ((7aR,8R,10R,10aR)-10-(4-aminopyrrolo[2,1-f][1,2,4]triazin-7-yl)-10-cyano-2,6-dioxooctahydro-2H-furo[3,4-b][1,4]dioxonin-8-yl)methyl ((1S,2R,4S)-1,3,3-trimethylbicyclo[2.2.1]heptan-2-yl) carbonate] | 7110 nM | 18 µM | 21700 nM | 0.595 min |  |  |  |
| CC1(C)CC(=O)O[C@H]2[C@@H](OC(=O)C1)[C@](C#N)(c1ccc3c(N)ncnn13)O[C@@H]2COC(=O)OC(C)(C)C(F)F [Compound C42, ((7aR,8R,10R,10aR)-10-(4-aminopyrrolo[2,1-f][1,2,4]triazin-7-yl)-10-cyano-4,4-dimethyl-2,6-dioxooctahydro-2H-furo[3,4-b][1,4]dioxonin-8-yl)methyl (1,1-difluoro-2-methylpropan-2-yl) carbonate] | > 50000 nM | > 50 µM | > 50000 nM | 27.7 min |  |  |  |
| CC1(C)CC(=O)O[C@H]2[C@@H](OC(=O)C1)[C@](C#N)(c1ccc3c(N)ncnn13)O[C@@H]2COC(=O)OCCN1CCOCC1 [Compound C36, ((7aR,8R,10R,10aR)-10-(4-aminopyrrolo[2,1-f][1,2,4]triazin-7-yl)-10-cyano-4,4-dimethyl-2,6-dioxooctahydro-2H-furo[3,4-b][1,4]dioxonin-8-yl)methyl (2-morpholinoethyl) carbonate] | > 50000 nM | > 50 µM | > 50000 nM | 31.6 min |  |  |  |
| COC(C)(C)COC(=O)OC[C@H]1O[C@@](C#N)(c2ccc3c(N)ncnn23)[C@@H]2OC(=O)CC(C)(C)CC(=O)O[C@@H]21 [Compound C39, ((7aR,8R,10R,10aR)-10-(4-aminopyrrolo[2,1-f][1,2,4]triazin-7-yl)-10-cyano-4,4-dimethyl-2,6-dioxooctahydro-2H-furo[3,4-b][1,4]dioxonin-8-yl)methyl (2-methoxy-2-methylpropyl) carbonate] | > 50000 nM | > 50 µM | 8580 nM | 9.97 min | 2 | 7.17 |  |
| CC1(C)CC(=O)O[C@H]2[C@@H](OC(=O)C1)[C@](C#N)(c1ccc3c(N)ncnn13)O[C@@H]2COC(=O)OC1CNC1 [Compound C51, ((7aR,8R,10R,10aR)-10-(4-aminopyrrolo[2,1-f][1,2,4]triazin-7-yl)-10-cyano-4,4-dimethyl-2,6-dioxooctahydro-2H-furo[3,4-b][1,4]dioxonin-8-yl)methyl azetidin-3-yl carbonate 2,2,2-trifluoroacetate] | > 50000 nM | > 50 µM | > 50000 nM | 26.6 min |  |  |  |

Source: patent publication US20240417411A1, “COMPOUNDS AND METHODS FOR TREATMENT OF VIRAL INFECTIONS” (priority 2023, published 2024)
